Laboratory results: PubChem BioAssay (NCI)
“And” between values parts separate entries of the source, which are not always exact repeats. Equal values may be shown once.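 Tested at 5 concentrations; 48 h exposure; 96-well plates; endpoints linearly interpolated, else capped at highest concentration. At the GI50, growth is halved. TGI denotes the concentration required for complete inhibition of growth.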

How the values were obtained:
Assay in all cases: NCI-60 cell line screen, 48 h
[1] = tested on: KM20L2 colon
[2] = tested on: XF 498 CNS
[3] = tested on: RXF-631 renal
[4] = tested on: DMS 273 small cell lung
[5] = tested on: HS 578T breast
[6] = tested on: BT-549 breast
[7] = tested on: MDA-MB-435
[8] = tested on: DU-145 prostate
[9] = tested on: MDA-N

Row | Compound | TGI [1] [µM] | TGI [2] [µM] | TGI [3] [µM] | TGI [4] [µM] | other results
1 | COC[C@@H](N=CN1CCc2cc(OC)c(OC)cc2[C@@H]1C)C(C)(C)C | > 100 | > 100 | > 100 | – | –
2 | NC1CCCCC1.[O]=[Ge].[O]=[Ge].[O]=[Ge][OH].[O]=[Ge][OH] | > 100 | > 100 | – | > 100 | GI50 [2]: > 100 µM
3 | O=C(c1ccc(Cl)cc1)c1ccc(OCCCCCCCCCCOc2ccc(C(=O)c3ccc(Cl)cc3)cc2)cc1 | > 100 | – | > 100 | > 100 | –
4 | NCCCOCC(=O)O | > 100 | – | – | > 100 | –
5 | COC(=O)C(C(=O)C(=O)Nc1ccc(C(F)(F)F)cc1[N+](=O)[O-])c1csc(-n2nc(-c3ccccc3)cc2-c2ccccc2)n1 (centres undefined) | > 100 | – | – | > 100 | –
6 | O=C([CH-]C(=O)c1ccccc1)c1ccccc1.O=C([CH-]C(=O)c1ccccc1)c1ccccc1.O=C([CH-]C(=O)c1ccccc1)c1ccccc1.[Nd+3].[OH3+] | 48 | – | – | – | GI50 [1]: 10.9 µM
7 | CC1(C)C(=O)C(C)(C)C1=NN | > 100 | > 100 | – | > 100 | –
8 | O=C(c1ccccc1)C1CCCCN1C(=O)c1ccccc1 (centres undefined) | > 100 | – | – | > 100 | –
9 | CCOC(=O)/C(O)=C/c1cc(OC)cc(=O)o1 | > 100 | – | – | > 100 | –
10 | OCCCOC(c1ccccc1)(c1ccccc1)c1ccccc1 | > 100 | > 100 | > 100 | > 100 | –
11 | Oc1cc(O)c(Oc2cccc(O)c2O)c(O)c1 | – | > 100 | > 100 | > 100 | –
12 | CCOC(=O)C1(Br)C(c2ccccc2)NC(=O)NC1(C)Br (centres undefined) | > 100 | > 100 | > 100 | > 100 | GI50 [5]: 37.4 µM; TGI [5]: > 100 µM; GI50 [6]: 14 µM; TGI [6]: 65.9 µM; GI50 [7]: 20.5 µM; TGI [7]: 57.3 µM; GI50 [8]: 44.5 µM; TGI [8]: > 100 µM
13 | CCCn1c(SC)nc(COC(=O)NC)c1COC(=O)NC | – | – | – | – | TGI [5]: > 100 µM; TGI [6]: > 100 µM; TGI [7]: > 100 µM; TGI [9]: > 100 µM; TGI [8]: > 100 µM
14 | C1C[OH+]CC[OH+]CCNCC[OH+]CC[OH+]CCN1.[Cl-].[Pt+4] | > 100 | – | – | – | GI50 [1]: > 100 µM
15 | O=C(O)C1C2CCC(O2)C1C(=O)N1CCCCC1 (centres undefined) | 13.1 | – | 51.6 | 23.3 | –
16 | CC1CCP(=O)(c2ccccc2)c2ccccc21 (centres undefined) | > 100 | – | – | 90.2 | –
17 | CC(=O)NNc1nc(C)c(C(=O)NNC(=O)C(=O)Nc2c(C)cccc2C)s1 | > 100 | – | > 100 | > 100 | –
18 | COc1ccccc1/C=C1\CCC(CCN(C)C)(C2=CCCC2)C1=O (centres undefined) | 15.7 | 31.7 | 29.8 | 32.1 | –
19 | COc1ccc(-c2oc3c(OC)c(OC)c(OC)c(O)c3c(=O)c2OC)cc1OC | – | – | – | – | TGI [5]: 17.3 µM; TGI [6]: > 100 µM; TGI [7]: 32.9 µM; TGI [9]: 30 µM; TGI [8]: > 100 µM
20 | CC1OC(OCC2OC(Oc3c(-c4ccc(O)cc4)oc4cc(O)cc(O)c4c3=O)C(OC3OC(C)C(O)C(O)C3O)C(O)C2O)C(O)C(O)C1O (centres undefined) | > 100 | > 100 | > 100 | > 100 | –
21 | CCCNCCCC(NC(C)=O)C(=O)NCc1ccccc1 (centres undefined) | > 100 | > 100 | > 100 | > 100 | –
22 | O=c1[nH]c(=O)n([C@@H]2C[C@H](CO)[C@H](O)C2)cc1/C=C/Br | > 100 | – | > 100 | > 100 | –

Row | Compound | TGI [1] [µM] | TGI [2] [µM] | TGI [3] [µM] | TGI [4] [µM] | other results
23 | Clc1ccc(Cc2nc3ccccc3s2)c(Cl)c1 | 52 | 26.5 | 30.1 | 33.6 | –
24 | C=C(CCCCCCCCC)CC(=O)SCCNC(=O)CCNC(=O)C(O)C(C)(C)COP(=O)(O)OP(=O)(O)OCC1OC(n2cnc3c(N)ncnc32)C(O)C1OP(=O)(O)O (centres undefined) | > 100 | > 100 | > 100 | 45.2 | TGI [5]: > 100 µM; TGI [6]: > 100 µM; TGI [7]: 67.7 µM; TGI [9]: > 76.6 µM; TGI [8]: > 100 µM
25 | CCc1cccc(C(C)C)c1NC(=O)C(=O)CC(=O)c1c(C)n([O-])c2ccccc2[n+]1=O | > 100 | > 100 | > 100 | – | –
26 | COc1cc(/C=C2\CCC/C(=C\c3cc(OC)c(O)c(OC)c3)C2=O)cc(OC)c1O | – | – | – | – | TGI [5]: > 100 µM; TGI [6]: 5.92 µM; GI50 [7]: 2.57 µM; TGI [7]: 75 µM and > 100 µM; GI50 [9]: 2.52 µM; TGI [9]: 75 µM and > 100 µM; TGI [8]: 6.01 µM
27 | O=C(Nc1cccc([N+](=O)[O-])c1)C(=O)C(C(=O)c1ccccc1-c1ccccc1)C1OC(=O)c2ccccc21 (centres undefined) | 53.7 | 41.4 | 61.5 | – | –
28 | C=CC1[C@H]2COC(C)(C)O[C@@H]2CC(=O)C1(C)C (some centres undefined) | > 100 | > 100 | – | > 100 | –
29 | O=C(Nc1cccs1)c1c(O)[nH]c(=S)[nH]c1=O | > 100 | – | > 100 | – | –
30 | COc1ccc(-c2cc(=O)c3c(C)cc(C)nc3[nH]2)cc1 | – | – | – | – | TGI [5]: > 100 µM; TGI [6]: 86.7 µM; GI50 [7]: 29.1 µM; TGI [7]: > 100 µM; GI50 [9]: 33.2 µM; TGI [9]: > 100 µM; TGI [8]: > 100 µM
31 | CCCCC1CC(c2cccc([N+](=O)[O-])c2)=NO1 (centres undefined) | > 100 | – | > 100 | > 100 | –
32 | CSC(CC(=O)O)C(=O)O (centres undefined) | – | – | – | – | TGI [5]: > 100 µM; TGI [6]: > 100 µM; TGI [7]: > 100 µM; TGI [9]: > 100 µM; TGI [8]: > 100 µM
33 | O=C(/C=C/c1ccccc1)CC1OC(=O)c2ccccc21 (centres undefined) | > 100 | > 100 | – | > 100 | –
34 | CC1CC#CCOC(=O)CCCC1=O (centres undefined) | > 100 | > 100 | – | > 100 | –
35 | CC1CC2CC(=O)CC3(C1)C2CCCN3CCCO (centres undefined) | – | > 100 | > 100 | > 100 | –
36 | CS(=O)(=O)OCCN1CCN(C(=O)c2cccc3c(Nc4ccc(S(=O)(=O)N=C(N)N)cc4)c4ccccc4nc23)CC1 | > 100 | > 100 | – | > 100 | –
37 | Cc1ccc(-c2cc(-c3ccco3)c(C#N)c(=O)[nH]2)cc1 | > 100 | – | – | > 100 | –
38 | CN(C)c1ccc([O-])cc1.CN(C)c1ccc([O-])cc1.CN(C)c1ccc([O-])cc1.CN(C)c1ccc([O-])cc1.[Ti+4] | > 100 | > 100 | > 100 | > 100 | GI50 [1]: > 100 µM; GI50 [2]: > 100 µM; GI50 [3]: > 100 µM; GI50 [4]: 34.3 µM
39 | COC(=O)C1C(O)CC(c2ccccn2)N(Cc2ccccc2)C1c1ccccn1 (centres undefined) | > 100 | – | > 100 | > 100 | –
40 | COc1cc(/C=C\c2ccc(C)cc2)cc(OC)c1OC | 0.000535 | – | – | 17.4 | GI50 [5]: 0.0358 µM; TGI [7]: 0.0672 µM; TGI [9]: 0.00521 µM; TGI [8]: 0.0843 µM
41 | CC(=O)N[C@@H]1C(O)CN2C(=O)C(=O)O[C@H](C(O)CO)[C@@H]12 (some centres undefined) | > 100 | > 100 | > 100 | > 100 | –
42 | CCCCCCCCCCCCCCN | – | – | – | – | TGI [5]: > 100 µM; TGI [6]: > 100 µM; TGI [7]: > 100 µM; TGI [9]: > 100 µM; TGI [8]: > 100 µM
43 | Nc1nc2c(c(=O)[nH]1)NC(CO)CN2 (centres undefined) | – | > 100 | – | > 100 | –
44 | O=C(O)COc1ccc(O)c2c1C(=O)CCCC2=O | > 100 | > 100 | > 100 | > 100 | –
